Each structure is given as a SMILES string.

The assay has as its target T1, hMCH-1R (Homo sapiens, UniProt Q99705).
T1 construct: expressed in transfected cells; host or cells: CHO/Galpha 16 cells, stably transfected; membranes used
The assay can be described thus: MCH-1 receptor binding test. Particulars: 125I-MCH binding, membranes from CHO/Galpha 16 cells stably transfected with human hMCH-1R. As for the experimental part:
Membranes from CHO/Galpha 16 cells stably transfected with human hMCH-1R are resuspended using a syringe (needle 0.6×25 mm) and diluted in test buffer (50 mM HEPES, 10 mM MgCl2, 2 mM EGTA, pH 7.00; 0.1% bovine serum albumin (protease-free), 0.021% bacitracin, 1 μg/mL aprotinin, 1 μg/mL leupeptin and 1 μM phosphoramidone) to a concentration of 5 to 15 μg/mL. […] After the incubation the reaction is filtered using a cell harvester through 0.5% PEI treated fiberglass filters (GF/B, Unifilter Packard). The membrane-bound radioactivity retained on the filter is then determined after the addition of scintillator substance (Packard Microscint 20) in a measuring device (TopCount of Packard). […] The analysis of the concentration binding curve is carried out on the assumption of one receptor binding site.

T1 sequence (Q99705 whole entry): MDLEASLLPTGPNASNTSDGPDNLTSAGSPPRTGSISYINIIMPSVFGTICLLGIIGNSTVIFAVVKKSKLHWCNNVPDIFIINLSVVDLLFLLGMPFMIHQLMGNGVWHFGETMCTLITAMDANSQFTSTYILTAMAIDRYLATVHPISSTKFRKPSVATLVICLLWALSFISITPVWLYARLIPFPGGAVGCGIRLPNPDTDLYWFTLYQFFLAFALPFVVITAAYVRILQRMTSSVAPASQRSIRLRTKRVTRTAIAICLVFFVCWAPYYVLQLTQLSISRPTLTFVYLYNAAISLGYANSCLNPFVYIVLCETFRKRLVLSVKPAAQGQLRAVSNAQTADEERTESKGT

Usually IC50 stands for the concentration at which inhibition is half-maximal. The compound `NC(=O)C1CCN([C@H]2CCN(c3ccc(C#Cc4ccc(-c5ccc(Cl)cc5)cn4)cn3)C2)CC1` [Example 6.3, (S)-1-(1-{5-[5-(4-chlorophenyl)pyridin-2-ylethynyl]pyridin-2-yl}pyrrolidin-3-yl)piperidin-4-carboxylic acid amide] displayed an IC50 of 3.7 nM.
Then `CCCN(CC1CC1)[C@H](C)/C=C(\C)c1ccc(C#Cc2ccc(-c3ccc(Cl)cc3)cn2)cc1` [Example 15.5, ((E)-(R)-3-{4-[5-(4-chlorophenyl)pyridin-2-ylethynyl]phenyl}-1-methylbut-2-enyl)cyclopropylmethylpropylamine], with 25 nM.

The values above are taken from patent publication US20050245529A1 (Boehringer Ingelheim International GmbH, priority 2004, published 2005).
